Measured values taken from patent US9243021B2, “Galactoside inhibitor of galectins” (University of Edinburgh, priority 2012, dated 2016).

Columns and labels:
[1] = tested on: β-catenin activation; experiment: TGF-β1-induced β-catenin activation in primary alveolar epithelial cells (western blot); type: cell-based, mouse; details: primary alveolar epithelial cells from WT mice, TGF-β1, 10 μM TD139
Experimental: Primary alveolar epithelial cells from WT mice were plated and treated with TGF-β1 in the presence or absence of 10 μM TD139. FIG. 1D) Cells were lysed and analyzed for active β-catenin, total β-catenin and β-actin by western blot.
Treated and control mouse type II lung alveolar epithelial cells (AECs) were extracted following a standard method. Briefly, 1 ml of 50 U/ml dispase (BD Biosciences) was administered intratracheally into perfused lungs followed by instillation of 0.5 ml of 1% low melting point agarose. The agarose within the upper airways was allowed to set on ice for 2 minutes and the lungs were placed in 4 ml 50 U/ml dispase for 45 min at room temperature. The lung lobes minus the upper airways were then dispersed in DMEM containing 50 μg/ml DNAse I (Sigma-Aldrich, UK). The cell suspension was passed through a 100 μm cell strainer and the cells washed in DMEM followed by resuspension in DMEM containing 10% FCS. The cell suspension was plated onto tissue culture plastic for 1 h to allow any contaminated fibroblasts and macrophages to adhere. Non-adherent epithelial cells were counted and cultured for 2 days on tissue culture plastic or cover-slips pre-coated with 5 μg/ml collagen (AMS Biotechnology) and 10 μg/ml fibronectin (Sigma-Aldrich), Cells were washed three times in PBS before treatment. […]

[2] = tested on: bleomycin induced lung fibrosis; experiment: Model of bleomycin-induced lung fibrosis; type: in vivo, mouse; details: female C57/Bl6 mice, intratracheal on days 18, 20, 22 and 24, lungs harvested day 26
Experimental: Female C57/Bl6 mice (10-14 weeks old) were anaesthetized with halothane, and bleomycin or saline was administered intratracheally (33 μg in 50 μl of saline) and lungs were harvested on day 26. TD139 was instilled into the lungs of mice on days 18, 20, 22 and 24 of bleomycin induced lung injury. Fibrosis was assessed by histological score of collagen stained lung sections and by total collagen content by Sircol assay.
Mice were treated with bleomycin (bleo) or saline (control) and bleomycin treated mice were treated with 200 mg/kg pirfenidone twice daily on days 18-24. TD139 was administered intratracheally on days 18, 20, 22 and 24. Lungs were harvested on day 26.
Histological lung inflammation and fibrosis score were carried out in Masson's trichrome stained sections. Inflammation (peribronchiolar, perivascular, and alveolar wall thickness) scored in >5 random fields at magnification×630 using the following system (peribronchiolar and perivascular, 1=no cells, 2=<20 cells, 3=20-100 cells, 4=>100 cells; alveolar wall thickness, 1=no cells, 2=2-3 cells thick, 3=4-5 cells thick, 4=>5 cells thick). The combined inflammatory score was the sum of these scores. Fibrosis score was evaluated as the area of the section positively stained for collagen (1=none, 2=<10%, 3=<50%, 4=>50%). Only fields where the majority of the field was composed of alveoli were scored. […]

[3] = half-life by route of administration; type: in vivo; details: mice
[4] = molecular target: galectin-3 (Homo sapiens, UniProt P17931)
galectin-3, sequence (P17931 whole entry): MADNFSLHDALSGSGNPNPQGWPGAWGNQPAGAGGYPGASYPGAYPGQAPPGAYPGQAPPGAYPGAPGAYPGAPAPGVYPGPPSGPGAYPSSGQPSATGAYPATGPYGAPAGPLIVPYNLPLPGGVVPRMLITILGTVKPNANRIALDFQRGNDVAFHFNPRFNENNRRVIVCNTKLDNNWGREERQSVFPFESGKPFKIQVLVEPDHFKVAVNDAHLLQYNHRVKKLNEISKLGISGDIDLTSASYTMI

- half-life, pulmonary route compared with i.v. or s.c. routes [3]: considerably longer half-life
- galectin-3 inhibitor [4]: inhibitor
Compound: OC[C@H]1O[C@@H](S[C@@H]2O[C@H](CO)[C@H](O)[C@H](n3cc(-c4cccc(F)c4)nn3)[C@H]2O)[C@H](O)[C@@H](n2cc(-c3cccc(F)c3)nn2)[C@H]1O [TD139, Bis-{3-deoxy-3-[4-(3-fluorophenyl)-1H-1,2,3-triazol-1-yl]-β-D-galactopyranosyl}sulfane]
- TGF-β-induced β-catenin activation in vitro [1]: blocked
- bleomycin induced lung fibrosis in vivo [2]: blocked
